Tests used:
Assay type in all cases: in vivo, human
[1] = Thrombocytopenia during teicoplanin treatment
Source text: Patients with platelet counts < 100 × 10^9/L at baseline were excluded. Thrombocytopenia was defined as a decrease in the platelet count of > 30% from baseline.

[2] = Nephrotoxicity (acute kidney injury) during teicoplanin treatment
Source text: Patients with renal impairment at baseline were excluded. Nephrotoxicity was defined as acute renal impairment indicated by a serum creatinine increase of > 50% from baseline.

[3] = Therapeutic drug monitoring of teicoplanin concentration after drug withdrawal, LC-MS/MS; conditions: for TDM Withdraw 8-14d (teicoplanin concentration): 8–14 days after last dose (withdrawal); for TDM Withdraw 8-14d (teicoplanin concentration) / TDM Withdraw 3d (teicoplanin concentration) / TDM Withdraw ≤ 7d (teicoplanin concentration) / TDM Withdraw ≥ 15d (teicoplanin concentration): median [IQR], LC-MS/MS; for TDM Withdraw 3d (teicoplanin concentration): 3 days after last dose (withdrawal); for TDM Withdraw ≤ 7d (teicoplanin concentration): ≤ 7 days after last dose (withdrawal); for TDM Withdraw ≥ 15d (teicoplanin concentration): ≥ 15 days after last dose (withdrawal); for patients with TDM 10–20 mg/L Withdraw ≥ 15d, N (%) / patients with TDM < 10 mg/L Withdraw ≥ 15d, N (%) / patients with TDM > 20 mg/L Withdraw ≥ 15d, N (%): ≥ 15 days after last dose
Experimental: Teicoplanin (Targocid, Sanofi, Dublin, Ireland) was administered intravenously for 30 min. The prescribed dose regimens were at the discretion of treating physicians, and the recommended regimens were not always followed.
Blood samples (5 mL) were collected from the elbow into ethylenediaminetetraacetic acid-containing Vacutainers® (Becton Dickinson, Milan, Italy) in the morning before teicoplanin administration and after drug withdrawal. Samples were promptly refrigerated and centrifuged at 2500 × g for 10 min before 2 mL of supernatant was preserved at -20 °C for subsequent analysis. Teicoplanin concentrations were determined using liquid chromatography-tandem mass spectrometry. The linear range of the method was 1.0–100.0 mg/L, and the lower limit of quantification was 1.0 mg/L. The relative standard deviation of intra- and inter-batch precision was ≤ 10%.
Teicoplanin concentrations were dynamically monitored. Concentrations at 3, ≤ 7, 8–14, and ≥ 15 days after the first dose and within 2 h of the next scheduled dose were recorded as TDM3d, TDM≤7d, TDM8-14d, and TDM≥15d, respectively. Concentrations at 3, ≤ 7, 8–14, and ≥ 15 days after the last teicoplanin dose (withdrawal) were recorded as TDMw3d, TDMw≤7d, TDMw8-14d, and TDMw≥15d. respectively (Fig. 1a). The Cmin target was ≥ 10 mg/L [6, 7, 23]; a concentration < 10 mg/L was considered suboptimal. Average TDM (TDMa) was defined as the mean Cmin after 3 days of treatment.

[4] = LR-A + MR-A (200 mg once daily, then 200 mg once daily)
[5] = LR-B + MR-A (400 mg once daily, then 200 mg once daily)
[6] = LR-C + MR-B (400 mg at 12-h intervals, then 400 mg once daily)
[7] = 8–14 days after last dose, LR-A + MR-A
[8] = 8–14 days after last dose, LR-B + MR-A
[9] = 8–14 days after last dose, LR-C + MR-B
[10] = LR-B + MR-B (400 mg once daily, then 400 mg once daily)
[11] = LR-C + MR-C (400 mg at 12-h intervals, then 400 mg twice daily)
[12] = 3 days after last dose, LR-A + MR-A
[13] = 3 days after last dose, LR-B + MR-A
[14] = 3 days after last dose, LR-B + MR-B
[15] = 3 days after last dose, LR-C + MR-B
[16] = 3 days after last dose, LR-C + MR-C
[17] = ≤ 7 days after last dose, LR-A + MR-A
[18] = ≤ 7 days after last dose, LR-B + MR-A
[19] = ≤ 7 days after last dose, LR-B + MR-B
[20] = ≤ 7 days after last dose, LR-C + MR-B
[21] = ≤ 7 days after last dose, LR-C + MR-C

Teicoplanin
incidence of thrombocytopenia ([1]; TDMa < 10 mg/L (16/49)): 32.7%
incidence of thrombocytopenia ([1]; TDMa = 10–20 mg/L (12/42)): 28.6%
incidence of thrombocytopenia ([1]; TDMa = 20–40 mg/L (7/20)): 35.0%
incidence of thrombocytopenia ([1]; all evaluable patients (35/111), platelet count decrease > 30% from baseline): 31.5%
incidence of acute kidney injury (AKI) / nephrotoxicity ([2]; TDMa < 10 mg/L (5/52)): 9.6%
incidence of acute kidney injury (AKI) / nephrotoxicity ([2]; TDMa = 10–20 mg/L (6/50)): 12.0%
incidence of acute kidney injury (AKI) / nephrotoxicity ([2]; TDMa = 20–40 mg/L (4/18)): 22.2%
incidence of acute kidney injury (AKI) / nephrotoxicity ([2]; all evaluable patients (15/120), serum creatinine increase > 50% from baseline): 12.5%
TDM Withdraw 8-14d (teicoplanin concentration) [3, 4]: 5.5[3.8,7.6] mg/L
TDM Withdraw 8-14d (teicoplanin concentration) [3, 5]: 5.0[3.4,6.6] mg/L
TDM Withdraw 8-14d (teicoplanin concentration) [3, 6]: 0[0,2.5] mg/L
TDM Withdraw 8-14d (teicoplanin concentration) ([3]; all patients (N = 204)): 5.3[3.3,7.0] mg/L
patients with TDM 10–20 mg/L Withdraw 8-14d, N (%) [3, 7]: 8(16.0)
patients with TDM < 10 mg/L Withdraw 8-14d, N (%) [3, 7]: 42(84.0)
patients with TDM > 20 mg/L Withdraw 8-14d, N (%) [3, 7]: 0
patients with TDM 10–20 mg/L Withdraw 8-14d, N (%) [3, 8]: 7(14.6)
patients with TDM < 10 mg/L Withdraw 8-14d, N (%) [3, 8]: 40(83.3)
patients with TDM > 20 mg/L Withdraw 8-14d, N (%) [3, 8]: 1(2.1)
patients with TDM 10–20 mg/L Withdraw 8-14d, N (%) [3, 9]: 0
patients with TDM < 10 mg/L Withdraw 8-14d, N (%) [3, 9]: 4(100)
patients with TDM > 20 mg/L Withdraw 8-14d, N (%) [3, 9]: 0
patients having concentrations of 10–20 mg/L, TDMw8-14d ([3]; 8–14 days after last dose, all patients, 15 patients): 14.6%
patients having concentrations exceeding 20 mg/L, TDMw8-14d ([3]; 8–14 days after last dose, all patients, one patient): 1.0%
patients in whom the target concentration (≥ 10 mg/L) was achieved after withdrawal ([3]; 8–14 days after withdrawal, all patients): 15.6%
TDM Withdraw 3d (teicoplanin concentration) [3, 4]: 11.1[8.2,16.5] mg/L
TDM Withdraw 3d (teicoplanin concentration) [3, 5]: 9.6[7.2,13.8] mg/L
TDM Withdraw 3d (teicoplanin concentration) [3, 10]: 16.3[9.4,20.2] mg/L
TDM Withdraw 3d (teicoplanin concentration) [3, 6]: 8.4[5.3,11.7] mg/L
TDM Withdraw 3d (teicoplanin concentration) [3, 11]: 12.4[7.9,15.6] mg/L
TDM Withdraw 3d (teicoplanin concentration) ([3]; all patients (N = 204)): 10.6[7.9,15.6] mg/L
patients with TDM 10–20 mg/L Withdraw 3d, N (%) [3, 12]: 7(53.8)
patients with TDM < 10 mg/L Withdraw 3d, N (%) [3, 12]: 5(38.5)
patients with TDM > 20 mg/L Withdraw 3d, N (%) [3, 12]: 1(7.7)
patients with TDM 10–20 mg/L Withdraw 3d, N (%) [3, 13]: 6(42.9)
patients with TDM < 10 mg/L Withdraw 3d, N (%) [3, 13]: 7(50.0)
patients with TDM > 20 mg/L Withdraw 3d, N (%) [3, 13]: 1(7.1)
patients with TDM 10–20 mg/L Withdraw 3d, N (%) [3, 14]: 3(60)
patients with TDM < 10 mg/L Withdraw 3d, N (%) [3, 14]: 1(20)
patients with TDM > 20 mg/L Withdraw 3d, N (%) [3, 14]: 1(20)
patients with TDM 10–20 mg/L Withdraw 3d, N (%) [3, 15]: 2(25.0)
patients with TDM < 10 mg/L Withdraw 3d, N (%) [3, 15]: 6(75.0)
patients with TDM > 20 mg/L Withdraw 3d, N (%) [3, 15]: 0
patients with TDM 10–20 mg/L Withdraw 3d, N (%) [3, 16]: 4(44.4)
patients with TDM < 10 mg/L Withdraw 3d, N (%) [3, 16]: 4(44.4)
patients with TDM > 20 mg/L Withdraw 3d, N (%) [3, 16]: 1(11.2)
patients having concentrations of 10–20 mg/L, TDMw3d ([3]; 3 days after last dose, all patients, 22 patients): 44.9%
patients having concentrations exceeding 20 mg/L, TDMw3d ([3]; 3 days after last dose, all patients, four patients): 8.2%
patients in whom the target concentration (≥ 10 mg/L) was achieved after withdrawal ([3]; 3 days after withdrawal, all patients): 53.1%
TDM Withdraw ≤ 7d (teicoplanin concentration) [3, 4]: 7.9[5.8,11.4] mg/L
TDM Withdraw ≤ 7d (teicoplanin concentration) [3, 5]: 7.2[5.6,12.0] mg/L
TDM Withdraw ≤ 7d (teicoplanin concentration) [3, 10]: 12.3[7.7,17.0] mg/L
TDM Withdraw ≤ 7d (teicoplanin concentration) [3, 6]: 6.3[3.4,9.4] mg/L
TDM Withdraw ≤ 7d (teicoplanin concentration) [3, 11]: 7.5[3.2,15.6] mg/L
TDM Withdraw ≤ 7d (teicoplanin concentration) ([3]; all patients (N = 204)): 7.4[5.7,12.0] mg/L
patients with TDM 10–20 mg/L Withdraw ≤ 7d, N (%) [3, 17]: 13(28.3)
patients with TDM < 10 mg/L Withdraw ≤ 7d, N (%) [3, 17]: 30(65.2)
patients with TDM > 20 mg/L Withdraw ≤ 7d, N (%) [3, 17]: 3(6.5)
patients with TDM 10–20 mg/L Withdraw ≤ 7d, N (%) [3, 18]: 14(29.8)
patients with TDM < 10 mg/L Withdraw ≤ 7d, N (%) [3, 18]: 31(66.0)
patients with TDM > 20 mg/L Withdraw ≤ 7d, N (%) [3, 18]: 2(4.2)
patients with TDM 10–20 mg/L Withdraw ≤ 7d, N (%) [3, 19]: 2(40)
patients with TDM < 10 mg/L Withdraw ≤ 7d, N (%) [3, 19]: 2(40)
patients with TDM > 20 mg/L Withdraw ≤ 7d, N (%) [3, 19]: 1(20)
patients with TDM 10–20 mg/L Withdraw ≤ 7d, N (%) [3, 20]: 2(18.2)
patients with TDM < 10 mg/L Withdraw ≤ 7d, N (%) [3, 20]: 9(81.8)
patients with TDM > 20 mg/L Withdraw ≤ 7d, N (%) [3, 20]: 0
patients with TDM 10–20 mg/L Withdraw ≤ 7d, N (%) [3, 21]: 2(22.2)
patients with TDM < 10 mg/L Withdraw ≤ 7d, N (%) [3, 21]: 6(66.7)
patients with TDM > 20 mg/L Withdraw ≤ 7d, N (%) [3, 21]: 1(11.1)
patients having concentrations of 10–20 mg/L, TDMw≤7d ([3]; ≤ 7 days after last dose, all patients, 33 patients): 28.0%
patients having concentrations exceeding 20 mg/L, TDMw≤7d ([3]; ≤ 7 days after last dose, all patients, seven patients): 5.9%
patients in whom the target concentration (≥ 10 mg/L) was achieved after withdrawal ([3]; ≤ 7 days after withdrawal, all patients): 33.9%
TDM Withdraw ≥ 15d (teicoplanin concentration) [3, 4]: 4.54[0,7.3] mg/L
TDM Withdraw ≥ 15d (teicoplanin concentration) [3, 5]: 4.1[0,7.0] mg/L
TDM Withdraw ≥ 15d (teicoplanin concentration) [3, 6]: 0[0,0] mg/L
TDM Withdraw ≥ 15d (teicoplanin concentration) [3, 11]: 2.1[0,2.8] mg/L
TDM Withdraw ≥ 15d (teicoplanin concentration) ([3]; all patients (N = 204)): 3.5[0,6.4] mg/L
patients with TDM 10–20 mg/L Withdraw ≥ 15d, N (%) ([3]; LR-A + MR-A): 1(2.4)
patients with TDM < 10 mg/L Withdraw ≥ 15d, N (%) ([3]; LR-A + MR-A): 41(97.6)
patients with TDM > 20 mg/L Withdraw ≥ 15d, N (%) ([3]; LR-A + MR-A): 0
patients with TDM 10–20 mg/L Withdraw ≥ 15d, N (%) ([3]; LR-B + MR-A): 4(10.5)
patients with TDM < 10 mg/L Withdraw ≥ 15d, N (%) ([3]; LR-B + MR-A): 34(89.5)
patients with TDM > 20 mg/L Withdraw ≥ 15d, N (%) ([3]; LR-B + MR-A): 0
patients with TDM 10–20 mg/L Withdraw ≥ 15d, N (%) ([3]; LR-C + MR-B): 0
patients with TDM < 10 mg/L Withdraw ≥ 15d, N (%) ([3]; LR-C + MR-B): 5(100)
patients with TDM > 20 mg/L Withdraw ≥ 15d, N (%) ([3]; LR-C + MR-B): 0
patients with TDM 10–20 mg/L Withdraw ≥ 15d, N (%) ([3]; LR-C + MR-C): 0
patients with TDM < 10 mg/L Withdraw ≥ 15d, N (%) ([3]; LR-C + MR-C): 5(100)
patients with TDM > 20 mg/L Withdraw ≥ 15d, N (%) ([3]; LR-C + MR-C): 0
patients in whom the target concentration (≥ 10 mg/L) was achieved after withdrawal ([3]; ≥ 15 days after withdrawal, all patients): 5.5%
patients in whom teicoplanin remained detectable ([3]; ≥ 15 days after withdrawal, lower limit of quantification 1.0 mg/L): two-thirds
